Results taken from publication PMC11206245 (Pharmaceuticals, 2024).
Like-named read-outs stand apart in the source and are kept apart here.

Columns and labels:
[1] = Study B multiple administrations of 150 mg/m^2: 17-AAG pharmacokinetics in plasma (HPLC); assay type: in vivo, dogs; settings: dog, iv; for AUC(0-t) / Cmax / half-life: both sexes, plasma, dogs, mean ± SD; for AUC(0-t): 150 mg/m2, AUC 0–8 h, Study B; for Cmax / half-life: 150 mg/m2, Study B; for half-life: read-out: t ½ (converted); for Clearance / DV (distribution volume): in vivo
Description: (§1) Study B involved 9 healthy dogs (8 females and 1 male), including the 4 females from Study A after wash-out and upon confirmation of regular laboratory evaluations. […] Tolerability evaluations were performed via clinical examinations and blood sampling for laboratory evaluation after each treatment. For toxicity assessments, 4, 6, and 8 h after the final administration, the animals were euthanized for tissue collection and histopathological evaluation.
In Studies A and B, an intravenous catheter was placed in the cephalic vein of each animal’s right and left anterior limbs. […] Under both protocols, blood samples were centrifuged at 1500× g at 4 °C for 10 min.
For the mobile phase, acetonitrile (ACN, J.T.Baker®, Philadelphia, PA, USA) and water with 1% acetic acid (J.T.Baker®)were used. Briefly, aliquots of 200 µL of plasma or 100 µL of subcutaneous interstitial liquid were placed in a 1.5 mL microcentrifuge tube. Subsequently, 600 µL and 300 µL of ACN were added to all plasma and subcutaneous interstitial liquid samples, respectively. The mixture was vortexed for 30 s, followed by centrifugation at 3400× g for 10 min. Next, 500 µL of the plasma supernatant and 250 µL of the subcutaneous interstitial fluid were pipetted into a new vial. […] Data acquisition and processing were performed using LabSolutions software (Version 5.3).
Cmax, half-life (t ½), distribution volume, and clearance were also determined. Data were analyzed in Excel and WinNonlin using a mono-compartmental model.

healthy dogs = experiment: Study B: safety and toxicity, side and adverse effects, plasma biochemistry; assay type: in vivo
Description: as §1
Hemograms were performed following blood collection.

[2] = 1st of three IV administrations of 150 mg/m^2 at 48 h intervals
[3] = 2nd of three IV administrations of 150 mg/m^2 at 48 h intervals
[4] = 3rd of three IV administrations of 150 mg/m^2 at 48 h intervals
[5] = Study B, third day, out of nine dogs

C=CCNC1=C2C[C@@H](C)C[C@H](OC)[C@H](O)[C@@H](C)/C=C(\C)[C@H](OC(N)=O)[C@@H](OC)/C=C\C=C(/C)C(=O)NC(=CC1=O)C2=O [17-AAG, 17-(allylamino)-17-demethoxygeldanamycin]
AUC(0-t) [1, 2]: 6350 ± 432 ng·h/mL
AUC(0-t) [1, 3]: 7050 ± 382 ng·h/mL
AUC(0-t) [1, 4]: 6850 ± 69 ng·h/mL
Cmax [1, 2]: 6310 ± 2200 ng/mL
Cmax [1, 3]: 5910 ± 1130 ng/mL
Cmax [1, 4]: 5250 ± 2780 ng/mL
half-life [1, 2]: 41.4 ± 13.2 min
half-life [1, 3]: 41.4 ± 14.4 min
half-life [1, 4]: 48.6 ± 21 min
Clearance ([1]; 1st administration): 0.023 ± 0.002 L/m^2/h
DV (distribution volume) ([1]; 1st administration): 0.029 ± 0.003 L/m^2
Clearance ([1]; 2nd administration): 0.021 ± 0.001 L/m^2/h
DV (distribution volume) ([1]; 2nd administration): 0.030 ± 0.002 L/m^2
Clearance ([1]; 3rd administration): 0.022 ± 0.002 L/m^2/h
DV (distribution volume) ([1]; 3rd administration): 0.033 ± 0.003 L/m^2
Animals with elevated transaminase levels persisting (healthy dogs; Study B, by the fourth day): only one animal
Animals with bloody diarrhea (healthy dogs; Study B, fourth day): one animal
Animals with pale feces (healthy dogs; Study B, fourth day): seven out of nine
Dogs with elevated levels of ALT and AST (healthy dogs; Study B, multiple doses of 150 mg/m^2, three out of nine): 33%
Animals with pasty feces (healthy dogs; Study B, second day after administering the second dose): two out of nine
Animals with bloody diarrhea (healthy dogs; [5]): one
Animals with diarrhea with liquid feces (healthy dogs; [5]): three
Animals with pasty feces (healthy dogs; [5]): two
Dogs presenting elevated levels of ALT, AST and GGT (healthy dogs; Study B, three IV doses of 150 mg/m^2): 3/9
Animals with skin reaction with temporarily erupted hairs (healthy dogs; dog, in vivo): only one animal
Animals presenting adverse reactions: ALT (healthy dogs; dog, in vivo, iv): 3 (33%) n (%)
Animals presenting adverse reactions: AST (healthy dogs; dog, in vivo, iv): 3 (33%) n (%)
Animals presenting adverse reactions: bloody diarrhea (healthy dogs; dog, in vivo, iv): 1 (11%) n (%)
Animals presenting adverse reactions: diarrhea (liquid feces) (healthy dogs; dog, in vivo, iv): 3 (33%) n (%)
Animals presenting adverse reactions: erythema (healthy dogs; dog, in vivo, iv): 0 n (%)
Animals presenting adverse reactions: hyperthermia (healthy dogs; dog, in vivo, iv): 0 n (%)
Animals presenting adverse reactions: nausea (healthy dogs; dog, in vivo, iv): 0 n (%)
Animals presenting adverse reactions: pasty feces (healthy dogs; dog, in vivo, iv): 9 (100%) n (%)
Animals presenting adverse reactions: pruritus (healthy dogs; dog, in vivo, iv): 0 n (%)
Animals presenting adverse reactions: vomit (healthy dogs; dog, in vivo, iv): 0 n (%)
